Assay results published in patent US20250320189A1, “NEW DERIVATIVES FOR TREATING TRPM3 MEDIATED DISORDERS” (Katholieke Universiteit Leuven, priority 2022, published 2025).

What was measured:
[1] = molecular target: T1, mouse TRPM3α2 (mTRPM3) ion channel (Mus musculus, UniProt J9SQF3); assay: Monitoring the TRPM3 ion channel driven Ca2+ uptake (Fluo-4 AM assay); type: cell-based; settings: mTRPM3alpha2 overexpressing flip-in HEK293 cells, stimulated with Pregnenolone sulfate (PS) 50 μM
T1 construct: expressed in transfected cells; host or cells: flip-in (Flp-In) HEK293
Method in brief: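 Flp-In HEK293 cells overexpressing mTRPM3α2 were loaded with Fluo-4 AM and added to plates holding compound plus 50 μM pregnenolone sulfate in Ca²⁺-containing Krebs buffer. Fluorescence (ex 485/em 535) was read right after cell addition. Inhibition was calculated against vehicle-stimulated and positive-control-inhibitor wells, with IC50 derived from it.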

rat pain model = settings: cited from earlier work
TRPM3 = TRPM3 (Homo sapiens, UniProt Q9HCF6); settings: cited from earlier work
[2] = system: wild type mice / knock-out TRPM3 mice; settings: wild type mice vs knock-out TRPM3 mice; cited from earlier work

T1 sequence (J9SQF3 1-1709 isoform J9SQF3-12): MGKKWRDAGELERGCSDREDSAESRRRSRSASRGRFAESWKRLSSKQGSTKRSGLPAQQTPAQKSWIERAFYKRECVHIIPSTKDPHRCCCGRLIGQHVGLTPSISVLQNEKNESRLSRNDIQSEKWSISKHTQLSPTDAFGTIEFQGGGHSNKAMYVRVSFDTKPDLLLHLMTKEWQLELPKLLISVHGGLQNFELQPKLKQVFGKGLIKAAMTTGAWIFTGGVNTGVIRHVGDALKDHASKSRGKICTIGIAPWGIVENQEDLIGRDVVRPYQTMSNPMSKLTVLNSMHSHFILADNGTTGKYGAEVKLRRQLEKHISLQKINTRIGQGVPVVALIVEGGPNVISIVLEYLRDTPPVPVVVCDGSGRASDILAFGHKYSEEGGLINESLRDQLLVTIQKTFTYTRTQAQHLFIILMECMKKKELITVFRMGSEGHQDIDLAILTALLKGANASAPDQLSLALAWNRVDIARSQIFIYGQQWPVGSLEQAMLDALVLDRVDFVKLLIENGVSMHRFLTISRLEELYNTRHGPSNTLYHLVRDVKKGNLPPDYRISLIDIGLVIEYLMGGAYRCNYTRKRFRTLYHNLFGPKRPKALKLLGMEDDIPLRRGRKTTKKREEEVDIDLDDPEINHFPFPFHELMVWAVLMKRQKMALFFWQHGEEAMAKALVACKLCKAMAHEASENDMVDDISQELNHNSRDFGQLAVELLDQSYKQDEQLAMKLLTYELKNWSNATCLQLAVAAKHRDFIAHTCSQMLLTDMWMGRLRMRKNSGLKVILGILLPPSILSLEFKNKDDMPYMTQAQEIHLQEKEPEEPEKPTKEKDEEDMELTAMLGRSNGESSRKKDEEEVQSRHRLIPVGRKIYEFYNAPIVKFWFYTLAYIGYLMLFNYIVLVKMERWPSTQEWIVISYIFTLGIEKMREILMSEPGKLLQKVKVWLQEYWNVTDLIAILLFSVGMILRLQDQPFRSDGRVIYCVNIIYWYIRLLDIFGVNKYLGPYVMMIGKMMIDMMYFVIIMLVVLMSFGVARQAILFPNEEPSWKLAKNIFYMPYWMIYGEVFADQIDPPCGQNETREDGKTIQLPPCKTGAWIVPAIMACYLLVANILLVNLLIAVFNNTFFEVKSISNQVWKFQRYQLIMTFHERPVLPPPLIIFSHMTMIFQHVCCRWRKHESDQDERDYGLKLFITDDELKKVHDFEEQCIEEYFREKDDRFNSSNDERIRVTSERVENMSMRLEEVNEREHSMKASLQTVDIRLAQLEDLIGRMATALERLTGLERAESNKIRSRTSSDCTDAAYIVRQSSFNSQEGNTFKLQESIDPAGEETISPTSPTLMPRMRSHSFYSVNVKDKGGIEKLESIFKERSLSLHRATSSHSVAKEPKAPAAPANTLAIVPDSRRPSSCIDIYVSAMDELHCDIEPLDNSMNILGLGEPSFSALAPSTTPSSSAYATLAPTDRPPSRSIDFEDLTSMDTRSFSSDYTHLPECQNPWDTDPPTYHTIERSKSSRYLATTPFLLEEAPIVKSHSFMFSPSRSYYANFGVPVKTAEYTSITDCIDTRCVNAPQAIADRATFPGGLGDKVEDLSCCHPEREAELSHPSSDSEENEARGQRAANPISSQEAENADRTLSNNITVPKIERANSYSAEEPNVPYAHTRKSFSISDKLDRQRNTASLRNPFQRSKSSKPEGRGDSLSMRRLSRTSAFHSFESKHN
Sequence of TRPM3 (Q9HCF6 whole entry, species assumed): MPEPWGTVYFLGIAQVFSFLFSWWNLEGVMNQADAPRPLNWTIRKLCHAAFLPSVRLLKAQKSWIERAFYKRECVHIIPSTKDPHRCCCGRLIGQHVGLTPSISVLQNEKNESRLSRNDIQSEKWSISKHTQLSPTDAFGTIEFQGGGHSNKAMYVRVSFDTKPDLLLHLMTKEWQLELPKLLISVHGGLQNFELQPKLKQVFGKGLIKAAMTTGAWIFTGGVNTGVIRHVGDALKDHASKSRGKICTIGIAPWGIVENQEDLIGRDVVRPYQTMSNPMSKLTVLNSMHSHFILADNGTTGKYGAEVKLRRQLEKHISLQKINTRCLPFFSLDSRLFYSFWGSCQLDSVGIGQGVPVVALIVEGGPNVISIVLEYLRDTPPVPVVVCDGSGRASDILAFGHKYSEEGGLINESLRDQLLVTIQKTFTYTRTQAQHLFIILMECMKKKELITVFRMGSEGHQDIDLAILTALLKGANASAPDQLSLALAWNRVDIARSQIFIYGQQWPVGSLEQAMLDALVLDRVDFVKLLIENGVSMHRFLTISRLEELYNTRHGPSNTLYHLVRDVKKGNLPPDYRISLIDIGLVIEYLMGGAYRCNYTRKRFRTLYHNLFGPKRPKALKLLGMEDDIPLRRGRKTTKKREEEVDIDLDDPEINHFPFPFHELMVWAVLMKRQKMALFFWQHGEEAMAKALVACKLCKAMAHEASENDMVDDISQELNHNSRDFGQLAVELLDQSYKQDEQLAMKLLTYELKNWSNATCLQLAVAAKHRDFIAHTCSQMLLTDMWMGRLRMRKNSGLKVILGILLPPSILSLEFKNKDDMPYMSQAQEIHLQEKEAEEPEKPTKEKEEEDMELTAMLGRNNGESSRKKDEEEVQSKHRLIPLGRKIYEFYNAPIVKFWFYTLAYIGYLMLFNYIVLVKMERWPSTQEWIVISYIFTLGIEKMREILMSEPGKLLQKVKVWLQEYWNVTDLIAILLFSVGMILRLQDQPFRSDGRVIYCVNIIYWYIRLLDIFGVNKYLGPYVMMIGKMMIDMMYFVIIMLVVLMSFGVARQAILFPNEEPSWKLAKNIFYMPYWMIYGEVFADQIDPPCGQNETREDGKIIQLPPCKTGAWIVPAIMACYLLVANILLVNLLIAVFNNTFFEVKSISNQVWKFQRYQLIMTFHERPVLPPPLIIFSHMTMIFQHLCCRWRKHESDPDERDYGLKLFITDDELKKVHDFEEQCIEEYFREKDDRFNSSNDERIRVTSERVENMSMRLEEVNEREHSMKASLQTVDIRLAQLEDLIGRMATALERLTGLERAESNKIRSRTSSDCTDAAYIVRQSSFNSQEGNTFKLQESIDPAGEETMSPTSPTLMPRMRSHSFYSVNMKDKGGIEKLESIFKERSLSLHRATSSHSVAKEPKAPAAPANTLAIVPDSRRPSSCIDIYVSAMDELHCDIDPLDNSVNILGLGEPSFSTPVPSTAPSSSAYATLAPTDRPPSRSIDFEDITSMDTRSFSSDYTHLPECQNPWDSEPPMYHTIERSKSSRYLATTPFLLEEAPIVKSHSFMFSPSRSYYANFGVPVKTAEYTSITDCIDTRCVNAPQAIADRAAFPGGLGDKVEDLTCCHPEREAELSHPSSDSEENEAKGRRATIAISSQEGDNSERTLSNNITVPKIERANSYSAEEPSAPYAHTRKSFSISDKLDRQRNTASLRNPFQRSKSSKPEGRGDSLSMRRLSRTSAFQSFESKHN

Compound	IC50 [1] [nM]	other results
Cc1oc2ccc(OCC3CC3)cc2c1C(=O)N[C@H](CO)C(N)=O [Cpd 009, (2R)-2-{[5-(cyclopropylmethoxy)-2-methyl-1-benzofuran-3-yl]formamido}-3-hydroxypropanamide]	< 1000	
Cc1oc2ccc(OCC3CC3)cc2c1C(=O)N[C@@H](C)C(N)=O [Cpd 010, (2S)-2-{[5-(cyclopropylmethoxy)-2-methyl-1-benzofuran-3-yl]formamido}propanamide]	< 1000	
Cc1oc2ccc(OCC3CC3)cc2c1C(=O)NC(C)(C)C(N)=O [Cpd 016, 2-{[5-(cyclopropylmethoxy)-2-methyl-1-benzofuran-3-yl]formamido}-2-methylpropanamide]	< 1000	
Cc1oc2ccc(OCC3CCCCC3)cc2c1C(=O)NC1CCN(C)CC1 [Cpd 020, 5-(cyclohexylmethoxy)-2-methyl-N-(1-methylpiperidin-4-yl)-1-benzofuran-3-carboxamide]	> 20000	
Cc1oc2ccc(OCC3CC3)cc2c1C(=O)NC1(CO)CCC1 [Cpd 025, 5-(cyclopropylmethoxy)-N-[1-(hydroxymethyl)cyclobutyl]-2-methyl-1-benzofuran-3-carboxamide]	< 1000	
Cc1oc2ccc(OCC3CC3)cc2c1C(=O)NC1(CO)COC1 [Cpd 029, 5-(cyclopropylmethoxy)-N-[3-(hydroxymethyl)oxetan-3-yl]-2-methyl-1-benzofuran-3-carboxamide]	< 1000	
Cc1oc2ccc(OCC3CC3)cc2c1C(=O)NC1(C(N)=O)COC1 [Cpd 034, N-(3-carbamoyloxetan-3-yl)-5-(cyclopropylmethoxy)-2-methyl-1-benzofuran-3-carboxamide]	< 1000	
Cc1oc2ccc(OCC(F)F)cc2c1C(=O)N[C@@H](CO)C(N)=O [Cpd 038, (2S)-2-{[5-(2,2-difluoroethoxy)-2-methyl-1-benzofuran-3-yl]formamido}-3-hydroxypropanamide]	< 1000	
Cc1oc2ccc(OCC(C)(C)C)cc2c1C(=O)N[C@@H](CO)C(N)=O [Cpd 039, (2S)-2-{[5-(2,2-dimethylpropoxy)-2-methyl-1-benzofuran-3-yl]formamido}-3-hydroxypropanamide]	< 1000	
Cc1oc2ccc(OCC(F)F)cc2c1C(=O)N[C@H](C(N)=O)[C@@H](C)O [Cpd 040, (2S,3R)-2-{[5-(2,2-difluoroethoxy)-2-methyl-1-benzofuran-3-yl]formamido}-3-hydroxybutanamide]	< 1000	
O=C1C[C@@H](c2ccc(O)cc2)Oc2cc(O)ccc21 [Liquiritigenin]		mechanical and cold hyperalgesia (rat pain model): decrease mechanical and cold hyperalgesia
pregnenolone sulfate		activator of TRPM3 (TRPM3): potent known activator; evoked pain [2]: evoked pain in wild type mice but not in knock-out TRPM3 mice

Second part, led by results:

IC50 [1] [nM]	Compound	other results
< 1000	NC(=O)[C@H](CO)NC(=O)c1c(C(F)F)oc2ccc(OCC3CC3)cc12 [Cpd 008, (2S)-2-{[5-(cyclopropylmethoxy)-2-(difluoromethyl)-1-benzofuran-3-yl]formamido}-3-hydroxypropanamide]	
< 1000	Cc1oc2ccc(OCC3(C(F)F)CC3)cc2c1C(=O)N[C@H](C(N)=O)[C@@H](C)O [Cpd 011, (2S,3R)-2-[(5-{[1-(difluoromethyl)cyclopropyl]methoxy}-2-methyl-1-benzofuran-3-yl)formamido]-3-hydroxybutanamide]	
< 1000	Cc1oc2ccc(OCCC3CC3)cc2c1C(=O)N[C@H](C(N)=O)[C@@H](C)O [Cpd 012, (2S,3R)-2-{[5-(2-cyclopropylethoxy)-2-methyl-1-benzofuran-3-yl]formamido}-3-hydroxybutanamide]	
< 1000	Cc1oc2ccc(OCC3CCCC3(F)F)cc2c1C(=O)NC(CO)C(N)=O (stereo not shown) [Cpd 013, 2-({5-[(2,2-difluorocyclopentyl)methoxy]-2-methyl-1-benzofuran-3-yl}formamido)-3-hydroxypropanamide]	
< 1000	Cc1oc2ccc(OCC3CCC3)cc2c1C(=O)NC(C)(C)C(N)=O [Cpd 015, 2-{[5-(cyclobutylmethoxy)-2-methyl-1-benzofuran-3-yl]formamido}-2-methylpropanamide]	
< 1000	Cc1oc2ccc(OCC3CCC3)cc2c1C(=O)NC(C)(CO)CO [Cpd 018, 5-(cyclobutylmethoxy)-N-(1,3-dihydroxy-2-methylpropan-2-yl)-2-methyl-1-benzofuran-3-carboxamide]	
1000 to 20000	Cc1oc2ccc(OCC3CC3)cc2c1C(=O)NC1CCN(C)CC1 [Cpd 021, 5-(cyclopropylmethoxy)-2-methyl-N-(1-methylpiperidin-4-yl)-1-benzofuran-3-carboxamide]	
1000 to 20000	Cc1oc2ccc(OCC3CC3)cc2c1C(=O)NC1CCOCC1 [Cpd 022, 5-(cyclopropylmethoxy)-2-methyl-N-(oxan-4-yl)-1-benzofuran-3-carboxamide]	
< 1000	Cc1oc2ccc(OCC3CC3)cc2c1C(=O)NC(C)(CO)CO [Cpd 023, 5-(cyclopropylmethoxy)-N-(1,3-dihydroxy-2-methylpropan-2-yl)-2-methyl-1-benzofuran-3-carboxamide]	
1000 to 20000	Cc1oc2ccc(OCC3CC3)cc2c1C(=O)NC1(CO)CC1 [Cpd 026, 5-(cyclopropylmethoxy)-N-[1-(hydroxymethyl)cyclopropyl]-2-methyl-1-benzofuran-3-carboxamide]	
< 1000	Cc1oc2ccc(OCC3CC3)cc2c1C(=O)NC1(CO)CCOCC1 [Cpd 030, 5-(cyclopropylmethoxy)-N-[4-(hydroxymethyl)oxan-4-yl]-2-methyl-1-benzofuran-3-carboxamide]	
< 1000	Cc1oc2ccc(OCC3CC3)cc2c1C(=O)NC1(C(N)=O)CCOCC1 [Cpd 037, N-(4-carbamoyloxan-4-yl)-5-(cyclopropylmethoxy)-2-methyl-1-benzofuran-3-carboxamide]	
